From patent publication US20030026831A1, “Anionic liposomes for delivery of bioactive agents” (priority 2001, published 2003)
{Cy3} = Cy3 fluorescent dye label

How the values were obtained:
[1] = tested on: hippocampal neurons; experiment: Colocalization with transferrin (early and recycling endosomes); type: cell-based, rat; conditions: delivered in anionic liposomes
Method: (§1) Colocalization of Lipids and Oligonucleotides with Transferrin and Dextran. Intracellular fates of endocytosed liposomes and ONs were determined by comparing their intracellular distributions with that of Oregon Green 488-Transferrin (OG-Tf) and Alexa488-dextran (Molecular Probes, Eugene, Oreg.) used as markers for the recycling and lysosomal compartments, respectively. Neurons were incubated with AL-Cy3ONs and either 100 μg/ml OG-Tf, for 30 minutes, 1 hour or 3 hours; or with 1 mg/ml Alexa488-dextran for 3 hours. For the lipid transport experiments, neurons were incubated with liposomes labeled with N—Rh-DOPE and either OG-TF, for 30 minutes, 1 hour, or 3 hours; or with 1 mg/ml Alexa-dextran for 3 hours. In another set of experiments, neurons were incubated with AL-Cy3ONs for 30 minutes, rinsed and chased with 1 mg/ml Alexa 488 dextran for 3 hours. Cells were rinsed and fixed for imaging as described above.
(§2) Confocal Microscopy and Image Analysis. Imaging was performed on a Leica TCS 4D confocal microscope (Deerfield, Ill.) equipped with a Mercury/Xenon lamp and argon/krypton laser. Cells were excited using the 488 nm laser line to detect Oregon Green 488-Transferrin and Alexa488-Dextran, and the emitted fluorescence was collected using a 515 long-pass filter. The 568 nm laser line was used to excite Cy3 and N—Rh-DOPE (LP590 emission). Cells were imaged at a plane midway between the substrate-attached plasma membrane and the top of the cell, such that neuronal nuclei were clearly identifiable. In some cases, the entire volume of the cell was scanned in 0.5 μm increments. Optimal images were obtained by averaging 16 images in the line-scan mode at the same fixed gains for all experiments. All fluorescent images presented in figures were equally contrast enhanced using ADOBE PHOTOSHOP (Adobe, Mountain View, Calif.).
(§3) All image analysis was performed using the METAMORPH Imaging System software (Universal Imaging, Downington, Pa.). The cell outlines for each set of double-labeled fields were traced out manually in the corresponding differential interference contrast image and then used to mask the fluorescence images. In each cell, the total fluorescence intensity was measured and the percent of Cy3 label or rhodamine label that colocalized with transferrin or dextran was calculated.

[2] = tested on: Chinese hamster ovary cell line (CHO-K1); experiment: Uptake of Cy3-ONs by CHO-K1 cells; type: cell-based; conditions: 1 μM Cy3-ONs, 1 h at 37° C.
Method: (§4) The ability of this delivery system to deliver DNA to cell types other than neurons was investigated by studying uptake of Cy3-oligonucleotides delivered by anionic DOPC/DOPG liposomes in cells derived from a variety of tissues. CHO, HeLa, HuH-7, MDCK and MEF-1 cells all avidly internalized AL-Cy3ONs within 1 h of incubation (FIG. 2). Uptake of AL-Cy3ONs occurred in the presence of serum in the culture medium. Similar to the uniform uptake seen in primary neurons, Cy3 fluorescence was visible in almost all cells exposed to AL-Cy3ONs in all cell types studied (Table 1). On the other hand, uptake of Cy3ON either without a delivery vector or complexed to cationic DC-Chol/DOPE liposomes was cell type-dependent, ranging from ˜5% in MDCK cells to ˜50% in HeLa cells (Table 1).

[3] = tested on: Human cervical carcinoma (HeLa); experiment: Uptake of Cy3-ONs by HeLa cells; type: cell-based; conditions: 1 μM Cy3-ONs, 1 h at 37° C.
Method: as §4

[4] = tested on: Primary rat hippocampal neurons; experiment: Uptake of Cy3-ONs by hippocampal neurons; type: cell-based
Method: Hippocampal Cell Culture. Primary cultures of hippocampal neurons were prepared from neonatal rat pups (P1 or P2) as previously described (Dubinsky, 1993). Neurons were plated onto 22-mm square glass coverslips coated with collagen and polylysine, at a density of 150,000 cells per coverslip. Neurons were cultured for 24-30 hours in minimum essential medium (MEM) with 10% NUSERUM (Collaborative Research) to increase attachment to the glass substrate, after which the growing medium was replaced with Neurobasal medium with B27 supplements (Life Technologies, Rockville, Md.). Fluorodeoxyuridine (15 μg/ml) was added to restrict the growth of non-neuronal cells. Cultures were maintained at 37° C. in a humidified atmosphere containing 5% CO2 for 6-9 days before use.
Uptake of Cy3-ONs by hippocampal neurons. […] Uninternalized ONs, liposomes or complexes were removed by several washes with L15 (Leibovitz's) medium. Cells were then fixed in 4% paraformaldehyde for 15 minutes at room temperature. For low temperature studies, neurons were incubated at 4° C. with AL-Cy3ONs for 10 minutes and then fixed. The cells were imaged immediately after fixation to avoid a potential redistribution of ONs (Grzanna et al., 1998).
as §2, with “All fluorescent images presented in figures were equally contrast enhanced using ADOBE PHOTOSHOP (Adobe, Mountain View, Calif.).” left out

[5] = tested on: Human hepatoma (Huh-7); experiment: Uptake of Cy3-ONs by Huh-7 cells; type: cell-based; conditions: 1 μM Cy3-ONs, 1 h at 37° C.
Method: as §4

[6] = tested on: Canine kidney cell line (MDCK); experiment: Uptake of Cy3-ONs by MDCK cells; type: cell-based; conditions: 1 μM Cy3-ONs, 1 h at 37° C.
Method: as §4

[7] = tested on: Mouse embryonic fibroblasts (MEF-1); experiment: Uptake of Cy3-ONs by LRP-expressing MEF-1 cells; type: cell-based; conditions: 1 μM Cy3-ONs, 1 h at 37° C.
Method: as §4
The endocytosis of AL-Cy3ONs in immortalized mouse embryonic fibroblast cell lines that expressed LRP (MEF-1) was compared to endocytosis of AL-Cy3ONs in immortalized mouse embryonic fibroblast cell lines that lacked the receptor (PEA-13).

[8] = tested on: hippocampal neurons; experiment: Colocalization with dextran (late endosomes and lysosomes); type: cell-based, rat; conditions: 3 h, delivered in anionic liposomes
Method: as §1
as §2, with “Optimal images were obtained by averaging 16 images in the line-scan mode at the same fixed gains for all experiments. All fluorescent images presented in figures were equally contrast enhanced using ADOBE PHOTOSHOP (Adobe, Mountain View, Calif.).” left out
as §3

“Cy3-ONs without delivery system: 18-mer 5′-CTGTGAATCCTCCATGAC-3′ (SEQ ID NO:2), targets rat p53 mRNA, labeled at the 5′-end with Cy3 (DNA, 5' {Cy3}, backbone not given here; listed as Rattus norvegicus)” was tested, and the “Percent colocalization with Transferrin” value ([1]; 30 min, listed as Cy3ON) was 14.86 ± 1%, the “Percent colocalization with Transferrin” value ([1]; 30 min, listed as Cy3ONs) was 15% and the “Percent colocalization with Transferrin” value ([1]; 1 h) was 22.67 ± 1.7%. For the same substance, the “Percent colocalization with Transferrin” value ([1]; 3 h, listed as Cy3ON) was 24.62 ± 2%, the “Percent colocalization with Transferrin” value ([1]; 3 h, listed as Cy3ONs) was at most 25% and the “Percent of cells with intracellular Cy3 fluorescence” value (from here on “Percent of cells”) [2] was 17%. The “Percent of cells” value [3] was 51.5%, the “Percent of cells” value ([3]; listed as Cy3ON without a delivery vector) was about 50% and the “Uptake of Cy3-ONs by neurons” value ([4]; 1 μM Cy3-ONs, 1 h, serum-containing medium) was “taken up by a low percentage of neurons”. For the same substance, the “Neuronal Cy3 fluorescence” value ([4]; 2 μM Cy3ONs, 30 minutes at 37° C.) was “low level of diffuse cellular fluorescence in only a small percent of cells”, the “Percent of cells” value ([4]; Primary rat hippocampal neurons, 1 μM Cy3-ONs, 1 h at 37° C.) was 6% and the “Percent of cells” value [5] was 18.3%. For the same substance, the “Percent of cells” value [6] was about 5%, the “Percent of cells” value [7] was 20% and the “Percent colocalization with Dextran” value ([8]; listed as Cy3ON) was 20.13 ± 1.8%. The “Percent colocalization with Dextran” value ([8]; listed as Cy3ONs) was 20%.
